{"source": "patent US12378188B2", "about": "“Waterborne crosslinker composition” (priority 2020, dated 2025)", "key": {"Rtkn": {"system": "Rtkn", "assay": "ToxTracker genotoxicity assay, Rtkn GFP reporter", "conditions": "fold induction vs vehicle control"}, "[1]": {"assay": "Storage stability of the crosslinker dispersion (gelling / coagulation)", "conditions": "dispersion pH 11 with TEA, Maxemul 7101", "procedure": "Functional performance and stability of the crosslinker dispersion were assessed using spot tests on coating surfaces, based on procedures from the DIN 68861-1 standard, and viscosity measurements using a Brookfield DVE-LV viscometer (S62 spindle at 60 rpm unless mentioned otherwise). For these tests, the crosslinker dispersion was stored in an oven at 50° C. for 4 weeks. Every week, the viscosity of the crosslinker dispersion was determined. […] This coating composition was filtered and applied to Leneta test cards using 100 μm wire rod applicators (Test 1). For reference, films were also cast from the same composition lacking the crosslinker dispersion (Test Blank). The films were dried for 1 hour at 25° C., then annealed at 50° C. for 16 hours. Subsequently, a piece of cotton wool was soaked in 1:1 EtOH: demineralized water and placed on the film for 1 hour."}, "[2]": {"conditions": "described in U.S. Pat. No. 5,133,997; cited from earlier work"}}}
{"molecule": "CCCCOCC(CN1CC1)OC(=O)NCCCCCCn1c(=O)n(CCCCCCNC(=O)OC(COCCCC)CN2CC2)c(=O)n(CCCCCCNC(=O)OC(COCCCC)CN2CC2)c1=O", "note": "(stereo not drawn) [Composition 1]", "values": [{"measurement": "Rtkn GFP reporter induction level", "setting": "Rtkn; With S9 rat liver extract, at 10% cytotoxicity, 3 h exposure and 24 h recovery", "result": 1.0}, {"measurement": "Rtkn GFP reporter induction level", "setting": "Rtkn; With S9 rat liver extract, at 25% cytotoxicity, 3 h exposure and 24 h recovery", "result": 1.1}, {"measurement": "Rtkn GFP reporter induction level", "setting": "Rtkn; With S9 rat liver extract, at 50% cytotoxicity, 3 h exposure and 24 h recovery", "result": 1.1}, {"measurement": "Rtkn GFP reporter induction level", "setting": "Rtkn; Without S9 rat liver extract, at 10% cytotoxicity, 24 h exposure", "result": 1.0}, {"measurement": "Rtkn GFP reporter induction level", "setting": "Rtkn; Without S9 rat liver extract, at 25% cytotoxicity, 24 h exposure", "result": 1.0}, {"measurement": "Rtkn GFP reporter induction level", "setting": "Rtkn; Without S9 rat liver extract, at 50% cytotoxicity, 24 h exposure", "result": 0.9}]}
{"molecule": "O=C(NCCCCCCn1c(=O)n(CCCCCCNC(=O)OCCN2CC2)c(=O)n(CCCCCCNC(=O)OCCN2CC2)c1=O)OCCN1CC1", "note": "[Example C4]", "values": [{"measurement": "Storage stability of dispersion", "setting": "[1]", "result": "a storage stable dispersion was not obtained"}, {"measurement": "Time until severe coagulation was observed after preparation of the dispersion", "setting": "[1]", "result": "≤ 4", "unit": "h"}]}
{"molecule": "O=C(CCN1CC1)OCC(CO)(COC(=O)CCN1CC1)COC(=O)CCN1CC1", "note": "[XAMA-7]", "values": [{"measurement": "Stability in water", "setting": "[2]", "result": "unstable in water"}]}
